Source: US9579334B2, “Iminosugars and methods of treating viral diseases” (Emergent Virology LLC, priority 2009, dated 2017)

How the values were obtained:
[1] = tested on: Vero cells; assay: Cytotoxicity towards Vero cells, LDH assay; type: cell-based, African green monkey; conditions: for toxicity to the Vero cells: 0.122 up to 500 uM
Description: Procedure. NB-DNJ, NN-DNJ and N7-O-DNJ at concentrations from 0.122 up to 500 uM were tested for cytotoxicity towards Vero cells. Vero cells (Afrika green monkey kidney epithelial cell line) obtained from American Type Culture Collection (ATCC, Manassas, Va.) were plated in cell culture treated 96-well flat bottom plates 24 hr prior to assay. Test were done in modified Eagle medium, supplemented with 2% fetal bovine serum, 2 mM L-glutamine, 100 U/ml penicillin, 100 ug/ml streptomycin, starting at 500 μM compounds, decreasing to 0.122 uM. Cells were cultured at 37° C., 5% CO2 incubator and the plates were assayed by LDH assay (CytoTox96, Promega, Wis.) according to the manufacturer's recommendations for induced cellular damage (release of cytoplasmic enzyme lactate dehydrogenase). OD readings were used to calculate and compare percent cytopathic effect of cells treated with compounds or controls. […] NN-DNJ begins to show toxicity to the cells at concentrations above ˜20 uM.

[2] = tested on: Dengue 2 strain S221; assay: Protection of AG129 mice against Dengue virus (survival); type: in vivo
Description: FIGS. 10 and 11 A-C show protection of mice against Dengue virus by UV-4 (N9-DNJ). In this model, AG129 mice, which are 129/Sv mice lacking receptors for both alpha/beta interferon and IFN-gamma, are infected with Dengue 2 strain S221 via intravenous injection. The mice die of TNF-a mediated acute/early death 4-5 days after infection, see Shresta, S., et al., J Virol, 2006. 80(20): p. 10208-17. Each experiment group contained 5 mice sex matched and 5-6 weeks old. The mice were injected intravenously via the tail vein with 10^11 genomic equivalents of DENV2 strain S221 30 min after the first N9-DNJ dose was administered orally. The N9-DNJ was administered orally twice daily at 200, 100, 50 and 10 mg/kg. The antiviral compound Ribavirin 100 mg/kg was given subcutaneously once daily and included as a positive control together with a PBS-only group. Animals displaying severe illness during the experiment (as determined by 20% weight loss, extreme lethargy, ruffled coat, or paralysis) were euthanized.

`CCCOCCCCCCN1C[C@H](O)[C@@H](O)[C@H](O)[C@H]1CO` [N7-O-DNJ, N-(7-Oxadecyl)deoxynojirimycin] was tested, and the “toxicity to the Vero cells” value [1] was “non-toxic”.

`COCCCCCCCCCN1C[C@H](O)[C@@H](O)[C@H](O)[C@H]1CO` [N9-DNJ, N-(9-Methoxynonyl) deoxynojirimycin] was tested, and the “survival, p vs. PBS” value ([2]; 10 mg/kg orally twice daily) was 0.034, the “survival, p vs. PBS” value ([2]; 100 mg/kg orally twice daily) was 0.002 and the survival ([2]; DENV2 S221 i.v., orally twice daily at 200, 100, 50 and 10 mg/kg, all drug concentrations) was “statistically significant improvement in survival”.

In the case of `CCCCN1C[C@H](O)[C@@H](O)[C@H](O)[C@H]1CO` [NB-DNJ, N-Butyl deoxynojirimycin], the “toxicity to the Vero cells” value [1] is reported as “non-toxic”.

In the case of `CCCCCCCCCN1C[C@H](O)[C@@H](O)[C@H](O)[C@H]1CO` [NN-DNJ, N-Nonyl dexoynojirimycin], the “concentration above which toxicity to the cells begins to show” value ([1]; Vero cells) is reported as over 20 µM.
